“Also recorded” adds a separate entry of the source.
How the values were obtained:
[1] = Cytotoxicity counter-screen (CellTiter-Glo); assay type: cell-based, human; settings: human, HEK-hNpr1-cGMP-sensor cells; 2 hours with compound, CellTiter-Glo
Method: (§1) Compound cytotoxicity was tested with Promega's CellTiter-Glo™ assay which measures cellular adenosine triphosphate content, a surrogate of metabolic activity, with a firefly luciferase reagent. A cytotoxicity counter-screen using HEK-hNpr1-cGMP-sensor cells was performed on the 1,408 follow-up compounds. Cells (1.5×10^3) cells were plated in 4 μL C02-independent media in white, solid bottom TC-treated 1536-well plates (Greiner Bio-One). Cells were incubated at 37° C., 5% CO2 and 95% humidity for 16 hours. Compound transfer was performed as described for qHTS along with DMSO and a titration of Digitonin from a top concentration of 115 μM to 3.5 nM in columns 1-4 of each assay plate as vehicle and cytotoxicity controls, respectively. Cells were incubated with compound for 2 hours at 37° C. CellTiter-Glo™ reagent (Promega) (3 μl) was added to each well with a BioRAPTR Flying Reagent Dispenser™ (Beckman Coulter) and plates were incubated for 10 min at room temperature, protected from light. Luminescence was measured on a ViewLux™ plate reader. Data were normalized to the average signal of DMSO-treated wells as 0% and the average signal of wells treated with 115 μM Digitonin as −100% activity and analyzed as above.

[2] = test system: HEK-hNpr1-cGMP-sensor cells; experiment: Cytotoxicity counter-screen (CellTiter-Glo); assay type: cell-based, human; settings: for Imax, cytotoxicity: −100% = 115 μM Digitonin, n.d. = inhibition not detectable at all
Method: as §1

Firefly luciferase = Firefly luciferase (Photinus pyralis, UniProt P08659); experiment: Biochemical Firefly luciferase enzymatic counter-screen; settings: for Imax, Fluc in vitro: −100% = 57.5 μM PTC124, n.d. = inhibition not detectable at all; for Direct effect on Firefly luciferase (in words): FLuc in vitro
Chain of Firefly luciferase (P08659 whole entry): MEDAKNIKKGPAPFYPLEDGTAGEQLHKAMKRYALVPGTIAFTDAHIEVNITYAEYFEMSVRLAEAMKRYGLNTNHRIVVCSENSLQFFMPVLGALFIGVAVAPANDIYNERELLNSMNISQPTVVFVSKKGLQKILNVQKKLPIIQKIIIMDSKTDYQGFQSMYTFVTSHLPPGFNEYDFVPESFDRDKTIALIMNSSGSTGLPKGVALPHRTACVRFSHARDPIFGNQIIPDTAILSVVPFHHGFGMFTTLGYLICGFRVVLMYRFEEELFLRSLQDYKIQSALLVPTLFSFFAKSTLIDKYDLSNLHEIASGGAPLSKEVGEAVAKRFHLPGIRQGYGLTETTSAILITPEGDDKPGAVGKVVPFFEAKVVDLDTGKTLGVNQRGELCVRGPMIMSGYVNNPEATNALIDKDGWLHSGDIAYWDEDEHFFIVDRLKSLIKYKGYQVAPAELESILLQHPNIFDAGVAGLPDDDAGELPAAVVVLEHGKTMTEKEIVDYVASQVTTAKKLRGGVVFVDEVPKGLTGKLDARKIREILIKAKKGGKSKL
Method: Direct effects of compounds on firefly luciferase enzymatic activity were tested in vitro. A Firefly luciferase enzyme assay was performed on the 1,408 follow-up compounds. To achieve half-maximal reaction velocity, the D-Luciferin substrate concentration equaled Km and the assay was otherwise performed according to Jang et al., ACS Chem. Bio., 7: 1205-1213 (2012) (which is incorporated herein by reference, in its entirety), as follows: 3 μl of substrate-buffer solution (0.01 mM D-Luciferin, 0.01 mM ATP, 50 mM Tris Acetate, 10 mM Mg Acetate, 0.01% Tween-20 and 0.038% BSA final concentrations) were dispensed into white, solid bottom medium bind 1536-well plates (Greiner Bio-One) with a BioRAPTR Flying Reagent Dispenser™ (Beckman Coulter). Compounds were transferred as described for qHTS along with DMSO (as a negative control) and titrations of PTC124 (as a positive control), ranging from the top concentration of 57.5 μM to 4.0 μM in columns 1-4 of each plate as vehicle and positive controls, respectively. Luciferase enzyme-buffer solution (1 μl) (10 nM P. pyralis luciferase in 50 mM Tris Acetate final concentration) was dispensed and after a 5-minute incubation at room temperature, luminescence was read on a ViewLux™ plate reader.

C57BL/6N mice = experiment: Contact hypersensitivity (DNFB) model of chronic scratching; assay type: in vivo, mouse; settings: 163 μg i.p.
Method: The contact hypersensitivity model was performed as follows: the back of 6-8-week old female C57BL/6N mice (Envigo) was shaved with electric clippers. After 2 days, 25 μl of 0.5% (v/v) dinitro-fluoro-benzene (DNFB) diluted in a 4:1 mixture of acetone and olive oil was applied to the shaved back skin. Hapten challenge was performed 5 days after sensitization by applying 40 μl of 0.2% (v/v) DNFB in the same vehicle on the left ear and 40 μl of vehicle alone on the right ear. […] Mice were then injected intraperitoneally with JS-11 (163 μg) or DMSO (20%) as a vehicle control. After 10 minutes, scratching was again observed for 30 minutes. To assess skin inflammation, ear thickness was measured with a thickness gauge (Mitutoyo, Aurora, Ill.) before and 30 minutes after JS-11/DMSO injections and normalized to ear thickness before hapten challenge.

[3] = test system: soluble guanylate cyclase / pGloSensor-40F reporter in HEK-cGMP-sensor cells; experiment: Counter-screen, SNP-stimulated HEK-cGMP-sensor cells; assay type: cell-based, human
Excerpt: In order to identify small molecular compounds that inhibit the Npr1 receptor a high-throughput assay to probe inhibition of the receptor guanylate cyclase Npr1 was developed. The assay was designed taking advantage of Promega's GloSensor™ technology (Promega, Madison, Wis.). This technology involves the expression of a cyclic guanosine monophosphate (cGMP) biosensor, comprised of a firefly luciferase variant that was coupled to the cGMP binding domain of human phosphodiesterase 5A, and loading of cells with a cell-permeable luciferase substrate to monitor cGMP production by Npr1 in real time in live cells. Briefly, human embryonic kidney 293 cells stably expressing the human Npr1 and the pGloSensor™-40F cGMP vector (“pGloSensor™-40F”) were generated. Stimulating these cells with the Npr1 agonists human NppA or NppB, luciferase-induced light production could be detected in a dose-dependent manner. HEK293 cells stably expressing human Npr2 and pGS-40F and cells only expressing pGS-40F were also generated to conduct secondary counter screens. In these cells, NppC or sodium nitroprusside were used to stimulate Npr2 or soluble guanylate cyclase which is endogenously expressed in HEK293 cells, respectively. The Npr2-NppC counter screen was employed to search for agents that minimally effected this agonist-receptor interaction. The Npr2-NppC system was used because the side effects of most drugs occur on related receptors. Npr1 and Npr2 are the most related receptors in sequence and function and there are no additional active receptor subtypes in this family of receptors. The procedure is described in detail below.
First, hNpr1 assays were repeated, at 11 concentrations on all selected compounds, to validate all positive compounds from the primary screen. This confirmed the selection criteria used for the selection of the active compounds. […]

Compound	IC50 at 2 h [1] [µM]	Imax, cytotoxicity [2] [%]	Imax, Fluc in vitro (Firefly luciferase) [%]	Cytotoxicity (in words) [2]	Effect on SNP-induced GloSensor signals (in words) [3]	Direct effect on Firefly luciferase (in words) (Firefly luciferase)	other results
COc1ccccc1-c1n[nH]c2ncc(C(=O)NCc3cccnc3)nc12 [JS-6, 3-(2-methoxyphenyl)-N-(pyridin-3-ylmethyl)-1H-pyrazolo[3,4-b]pyrazine-5-carboxamide]	45 ± 43	−36 ± 87	–	–	–	–	–
Cl.O=C1Nc2ccccc2CN(CC2CCCCC2)C12CCNCC2 [JS-1, 4-(cyclohexylmethyl)-4,5-dihydrospiro[benzo[e][1,4]diazepine-3,4′-piperidin]-2(1H)-one hydrochloride]	–	–	−3 ± 3	–	–	–	–
Cc1cc(CNC(=O)c2ccc3c(c2)n(CC2CC2)c(=O)n3C2CCCCC2)on1 [JS-11, 1-cyclohexyl-3-(cyclopropylmethyl)-N-((3-methylisoxazol-5-yl)methyl)-2-oxo-2,3-dihydro-1H-benzo[d]imidazole-5-carboxamide]	–	–	–	are not cytotoxic; also recorded: does not produce cytotoxicity	do not attenuate SNP dependent cGMP sensor activation; also recorded: does not block SNP-induced GloSensor™ signals	do not directly inhibit luciferase; also recorded: does not inhibit Firefly luciferase	Skin inflammation (% ear thickness) after hapten challenge (C57BL/6N mice; measured before and 30 minutes after injection): had no effect on skin inflammation; also recorded: no differences in % ear thickness were detectable; Hapten-induced scratching responses (C57BL/6N mice; scratching observed 30 minutes, from 10 minutes after injection): attenuated hapten-induced scratching responses by about a half; also recorded: significantly reduced
Cc1noc(C)c1-c1cc(-c2ccccc2Oc2ccccc2)cn2cncc12 [JS-5, 3,5-dimethyl-4-(6-(2-phenoxyphenyl)imidazo[1,5-a]pyridin-8-yl)isoxazole]	–	–	–	are not cytotoxic; also recorded: does not produce cytotoxicity	do not attenuate SNP dependent cGMP sensor activation; also recorded: does not block SNP-induced GloSensor™ signals	do not directly inhibit luciferase; also recorded: does not inhibit Firefly luciferase	–
CCC(CC)c1cc([C@H]2CN3CC[C@H]2C[C@@H]3CNS(=O)(=O)c2cccs2)nc(-c2ccncc2)n1 [JS-3, N-(((2R,4S,5R)-5-(6-(pentan-3-yl)-2-(pyridin-4-yl)pyrimidin-4-yl)quinuclidin-2-yl)methyl)thiophene-2-sulfonamide]	–	–	−1 ± 6	–	–	–	IC50 (Firefly luciferase): 25 ± 4 µM
Cc1nn2c(c1-c1ccccc1OCc1ccccc1)N(C(=O)Cc1ccc3c(c1)OCO3)CCC2 [JS-8, 2-(benzo[d][1,3]dioxol-5-yl)-1-(3-(2-(benzyloxy)phenyl)-2-methyl-6,7-dihydropyrazolo[1,5-a]pyrimidin-4(5H)-yl)ethan-1-one]	49 ± 14	−22 ± 29	–	are not cytotoxic; also recorded: does not produce cytotoxicity	do not attenuate SNP dependent cGMP sensor activation; also recorded: does not block SNP-induced GloSensor™ signals	do not directly inhibit luciferase; also recorded: does not inhibit Firefly luciferase	–

From US11324725B2, “Compositions and methods for the inhibition of pruritus” (The United States of America, as represented by the …, priority 2017, dated 2022)
